pIC50: −log10 of the molar value. Where two headings read alike, the source gives them in different places.
How the values were obtained:
MCF7 = test: CCK-8 proliferation, MCF7 (MCF-7); type: cell-based; conditions: Homo sapiens, MCF7; CCK-8; read-out: Inhibitory activity (IC50) on tumor cell proliferation, MCF7
Procedure, shortened: (§1)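 CCK-8 viability readout; IC50 from growth-inhibition curve fitting. Cells plated, dosed 24h later with a 10-point series, top 10µM, 5-fold steps. Culture at 37°C, 5% CO2.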

MV-4-11 = test: CCK-8 proliferation, MV-4-11; type: cell-based, Human; conditions: Homo sapiens, MV4-11; CCK-8; 72 or 96 hours; read-out: Inhibitory activity (IC50) on tumor cell proliferation, MV-4-11
Procedure, shortened: as §1

22RV1 = test: CCK-8 proliferation, 22RV1; type: cell-based; conditions: Homo sapiens, 96 hours, read-out: Inhibitory activity (IC50) on tumor cell proliferation, 22RV1
Method: The tumor cells used herein were cultured in a cell culture medium listed in table A1 at 37°C in an incubator with 5% CO2. Prior to experimentation, all cell lines used were correctly identified by STR profiling, and tested negative for mycoplasma contamination using a mycoplasma detection kit through routine screenings. Table A1. Tumor cells and cell culture medium used in the present disclosure
IC50 values of the compounds of the present disclosure (including the compounds in Table 1, and compounds of examples) were measured using the Meilun Cell Counting Kit-8 kit from Dalian Meilun Biotech Co., Ltd. Assay details are as follows: tumor cells were seeded in a 96-well plate at a density listed in Table A2. After 24h, 100 µL of the inoculated cells were treated with 0.5µL of the compounds of the present disclosure (including the compounds in Tables 1 and 2, and compounds of examples) at 10 different successively decreasing concentrations (starting at the highest concentration of 10µM; 5-fold serial dilutions). After the cells were treated with the compounds of the present disclosure for a period of time, the cell viability detection reagent was added to the culture medium for cell viability assessment according to the instructions provided with the CCK-8 kit. […] The growth inhibition of the compounds of the present disclosure on cells was plotted by Prism Graphpad software, and the IC50 values of the compounds of the present disclosure were calculated therefrom. […] Seeding protocol and treatment time for tumor cells

CCRF-CEM = test: CCK-8 proliferation, CCRF-CEM; type: cell-based, Human; conditions: Homo sapiens, CCRF-CEM; CCK-8; 96 hours; read-out: Inhibitory activity (IC50) on tumor cell proliferation, CCRF-CEM
Procedure, shortened: as §1

Kasumi-1 = test: CCK-8 proliferation, Kasumi-1; type: cell-based, Human; conditions: Homo sapiens, Kasumi 1, 72 hours, read-out: Inhibitory activity (IC50) on tumor cell proliferation, Kasumi-1
Procedure, shortened: as §1

CDK4 = target: T1, CDK4 (Homo sapiens, UniProt P11802); test: Western blot degradation of CDK4 (MDA-MB-231 Cell); type: cell-based; conditions: Table D3
T1 construct: evaluate the effects of the compounds of the present disclosure on the expression of target proteins in cells; endogenous in cells; host or cells: MDA-MB-231
Procedure, shortened: (§2)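 Degradation is assessed by immunoblotting lysates of treated cells. Target bands are quantified by grayscale and normalised to an internal control, so degradation rate equals 100% minus % remaining.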

CDK6 = target: T2, CDK6 (Homo sapiens, UniProt Q00534); test: Western blot degradation of CDK6 (MDA-MB-231 Cell); type: cell-based; conditions: Table D3
T2 construct: evaluate the effects of the compounds of the present disclosure on the expression of target proteins in cells; endogenous in cells; host or cells: MDA-MB-231
Procedure, shortened: as §2

H1975 = test: CCK-8 proliferation, NCI-H1975 (H1975); type: cell-based, Human; conditions: Homo sapiens, read-out: Inhibitory activity (IC50) on tumor cell proliferation, H1975
Procedure, shortened: as §1

SR = test: CCK-8 proliferation, SR; type: cell-based, Human; conditions: Homo sapiens, SR; CCK-8; 72 hours; read-out: Inhibitory activity (IC50) on tumor cell proliferation, SR
Procedure, shortened: as §1

MM.1S = test: CCK-8 proliferation, MM.1S; type: cell-based; conditions: Homo sapiens, MM1.S; CCK-8; 72 hours; read-out: Inhibitory activity (IC50) on tumor cell proliferation, MM1S
Procedure, shortened: as §1

T2 sequence (Q00534 whole entry): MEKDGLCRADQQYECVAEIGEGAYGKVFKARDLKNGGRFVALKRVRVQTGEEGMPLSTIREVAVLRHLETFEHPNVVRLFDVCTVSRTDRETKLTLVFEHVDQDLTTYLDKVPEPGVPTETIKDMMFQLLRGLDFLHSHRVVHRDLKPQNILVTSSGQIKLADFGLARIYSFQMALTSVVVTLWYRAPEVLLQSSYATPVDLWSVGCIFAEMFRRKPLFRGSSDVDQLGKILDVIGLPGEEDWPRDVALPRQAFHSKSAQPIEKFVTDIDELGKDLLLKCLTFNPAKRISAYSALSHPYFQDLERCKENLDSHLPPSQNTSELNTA
T1 sequence (P11802 whole entry): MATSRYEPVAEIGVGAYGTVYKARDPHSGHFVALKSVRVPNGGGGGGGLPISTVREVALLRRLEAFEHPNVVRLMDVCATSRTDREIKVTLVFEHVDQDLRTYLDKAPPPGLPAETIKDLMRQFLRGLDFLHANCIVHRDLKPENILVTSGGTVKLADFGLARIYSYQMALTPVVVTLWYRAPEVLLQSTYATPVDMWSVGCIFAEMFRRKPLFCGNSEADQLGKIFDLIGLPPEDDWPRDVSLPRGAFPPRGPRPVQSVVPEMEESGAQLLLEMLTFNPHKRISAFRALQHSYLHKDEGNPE

pIC50 (MCF7)	pIC50 (MV-4-11)	pIC50 (22RV1)	pIC50 (CCRF-CEM)	pIC50 (H1975; NCI-H1975, CCK-8, 96 hours)	pIC50 (MM.1S)	Structure (SMILES)	pIC50 (Kasumi-1)	Degradation of substrate protein CDK4 (substrate protein remaining %) (CDK4)	Degradation of substrate protein CDK6 (substrate protein remaining %) (CDK6)	pIC50 (SR)	pIC50 (H1975; NCI-H1975, 96 h)
6.30 to 7.00	7.30 to 8.00	7.30 to 8.00	6.00 to 6.30	6.30 to 7.00	–	Cc1nc2c(F)cc(-c3nc(Nc4ccc(CN5CCN(Cc6ccc(N7CCC(=O)NC7=O)cc6)CC5)cn4)ncc3F)cc2n1C(C)C [GT-06665, 1-(4-((4-((6-((5-fluoro-4-(4-fluoro-1-isopropyl-2-methyl-1H-benzo[d]imidazol-6-yl)pyrimidin-2-yl)amino)pyridin-3-yl)methyl)piperazin-1-yl)methyl)phenyl)dihydropyrimidine-2,4(1H,3H)-dione]	6.30 to 7.00	A (A is defined as 0% ≤ substrate protein remaining % ≤ 80%)	A (A is defined as 0% ≤ substrate protein remaining % ≤ 80%)	6.30 to 7.00	–
6.30 to 7.00	7.30 to 8.00	7.00 to 7.30	6.30 to 7.00	6.00 to 6.30	6.00 to 6.30	Cc1nc2c(F)cc(-c3nc(Nc4ccc(CN5CCN(Cc6cccc(N7CCC(=O)NC7=O)c6)CC5)cn4)ncc3F)cc2n1C(C)C [GT-06666, 1-(3-((4-((6-((5-fluoro-4-(4-fluoro-1-isopropyl-2-methyl-1H-benzo[d]imidazol-6-yl)pyrimidin-2-yl)amino)pyridin-3-yl)methyl)piperazin-1-yl)methyl)phenyl)dihydropyrimidine-2,4(1H,3H)-dione]	6.30 to 7.00	A (A is defined as 0% ≤ substrate protein remaining % ≤ 80%)	A (A is defined as 0% ≤ substrate protein remaining % ≤ 80%)	6.30 to 7.00	–
6.30 to 7.00	7.30 to 8.00	7.00 to 7.30	6.30 to 7.00	–	–	Cc1nc2c(F)cc(-c3nc(Nc4ccc(CN5CCN(Cc6ccc(N7CCC(=O)NC7=O)cn6)CC5)cn4)ncc3F)cc2n1C(C)C [GT-06667, 1-(6-((4-((6-((5-fluoro-4-(4-fluoro-1-isopropyl-2-methyl-1H-benzo[d]imidazol-6-yl)pyrimidin-2-yl)amino)pyridin-3-yl)methyl)piperazin-1-yl)methyl)pyridin-3-yl)dihydropyrimidine-2,4(1H,3H)-dione]	6.30 to 7.00	A (A is defined as 0% ≤ substrate protein remaining % ≤ 80%)	A (A is defined as 0% ≤ substrate protein remaining % ≤ 80%)	6.30 to 7.00	–
7.30 to 8.00	7.30 to 8.00	7.30 to 8.00	7.00 to 7.30	6.30 to 7.00	6.30 to 7.00	Cc1nc2c(F)cc(-c3nc(Nc4ccc(N5CCC(N6CCN(Cc7ccc(N8CCC(=O)NC8=O)nc7)CC6)CC5)cn4)ncc3F)cc2n1C(C)C [GT-06742, 1-(5-((4-(1-(6-((5-fluoro-4-(4-fluoro-1-isopropyl-2-methyl-1H-benzo[d]imidazol-6-yl)pyrimidin-2-yl)amino)pyridin-3-yl)piperidin-4-yl)piperazin-1-yl)methyl)pyridin-2-yl)dihydropyrimidine-2,4(1H,3H)-dione]	6.30 to 7.00	–	–	7.30 to 8.00	–

Continued, compound first:

Structure (SMILES)	pIC50 (MCF7)	pIC50 (MV-4-11)	pIC50 (22RV1)	pIC50 (CCRF-CEM)	pIC50 (H1975; NCI-H1975, CCK-8, 96 hours)	pIC50 (MM.1S)	pIC50 (Kasumi-1)	Degradation of substrate protein CDK4 (substrate protein remaining %) (CDK4)	Degradation of substrate protein CDK6 (substrate protein remaining %) (CDK6)	pIC50 (SR)	pIC50 (H1975; NCI-H1975, 96 h)
CC(=O)c1c(C)c2cnc(Nc3ccc(N4CCC(N5CCN(Cc6ccc(C7CCC(=O)NC7=O)cc6)CC5)CC4)cn3)nc2n(C2CCCC2)c1=O (stereo not drawn) [GT-06659, 3-(4-((4-(1-(6-((6-acetyl-8-cyclopentyl-5-methyl-7-oxo-7,8-dihydropyrido[2,3-d]pyrimidin-2-yl)amino)pyridin-3-yl)piperidin-4-yl)piperazin-1-yl)methyl)phenyl)piperidine-2,6-dione]	6.30 to 7.00	6.30 to 7.00	7.30 to 8.00	6.30 to 7.00	–	–	6.30 to 7.00	A (A is defined as 0% ≤ substrate protein remaining % ≤ 80%)	A (A is defined as 0% ≤ substrate protein remaining % ≤ 80%)	–	–
Cc1nc2c(F)cc(-c3nc(Nc4ccc(CN5CCN(Cc6ccc(C7CCC(=O)NC7=O)cc6)CC5)cn4)ncc3F)cc2n1C(C)C (stereo not drawn) [GT-06664, 3-(4-((4-((6-((5-fluoro-4-(4-fluoro-1-isopropyl-2-methyl-1H-benzo[d]imidazol-6-yl)pyrimidin-2-yl)amino)pyridin-3-yl)methyl)piperazin-1-yl)methyl)phenyl)piperidine-2,6-dione]	–	7.30 to 8.00	7.00 to 7.30	6.00 to 6.30	6.00 to 6.30	–	6.30 to 7.00	A (A is defined as 0% ≤ substrate protein remaining % ≤ 80%)	B (B is defined as substrate protein remaining % > 80%)	6.30 to 7.00	–
Cc1nc2c(F)cc(-c3nc(Nc4ccc(N5CCC(N(C)Cc6ccc(C7CCC(=O)NC7=O)cc6)CC5)cn4)ncc3F)cc2n1C(C)C (stereo not drawn) [GT-06735, 3-(4-(((1-(6-((5-fluoro-4-(4-fluoro-1-isopropyl-2-methyl-1H-benzo[d]imidazol-6-yl)pyrimidin-2-yl)amino)pyridin-3-yl)piperidin-4-yl)(methyl)amino)methyl)phenyl)piperidine-2,6-dione]	–	7.30 to 8.00	7.30 to 8.00	6.30 to 7.00	6.30 to 7.00	6.30 to 7.00	6.30 to 7.00	A (A is defined as 0% ≤ substrate protein remaining % ≤ 80%)	A (A is defined as 0% ≤ substrate protein remaining % ≤ 80%)	7.00 to 7.30	–
Cc1nc2c(F)cc(-c3nc(Nc4ccc(N5CCC(N6CCN(Cc7ccc(N8CCC(=O)NC8=O)cc7)CC6)CC5)cn4)ncc3F)cc2n1C(C)C [GT-06739, 1-(4-((4-(1-(6-((5-fluoro-4-(4-fluoro-1-isopropyl-2-methyl-1H-benzo[d]imidazol-6-yl)pyrimidin-2-yl)amino)pyridin-3-yl)piperidin-4-yl)piperazin-1-yl)methyl)phenyl)dihydropyrimidine-2,4(1H,3H)-dione]	7.00 to 7.30	7.30 to 8.00	7.30 to 8.00	6.30 to 7.00	6.30 to 7.00	6.30 to 7.00	7.00 to 7.30	A (A is defined as 0% ≤ substrate protein remaining % ≤ 80%)	B (B is defined as substrate protein remaining % > 80%)	7.00 to 7.30	–
Cc1nc2c(F)cc(-c3nc(Nc4ccc(N5CCC(N6CCN(Cc7cccc(N8CCC(=O)NC8=O)c7)CC6)CC5)cn4)ncc3F)cc2n1C(C)C [GT-06740, 1-(3-((4-(1-(6-((5-fluoro-4-(4-fluoro-1-isopropyl-2-methyl-1H-benzo[d]imidazol-6-yl)pyrimidin-2-yl)amino)pyridin-3-yl)piperidin-4-yl)piperazin-1-yl)methyl)phenyl)dihydropyrimidine-2,4(1H,3H)-dione]	7.00 to 7.30	7.30 to 8.00	7.30 to 8.00	6.30 to 7.00	6.30 to 7.00	6.30 to 7.00	7.00 to 7.30	A (A is defined as 0% ≤ substrate protein remaining % ≤ 80%)	B (B is defined as substrate protein remaining % > 80%)	7.30 to 8.00	–
CCN1CCN(Cc2ccc(Nc3ncc(F)c(-c4cc(F)c5nc(C)n(C(C)C)c5c4)n3)nc2)CC1 [abemaciclib, reference compound]	5.30 to 6.00	7.00 to 7.30	7.30 to 8.00	5.30 to 6.00	–	5.30 to 6.00	6.00 to 6.30	–	–	6.00 to 6.30	5.30 to 6.00

Source: patent EP4678638A1, “NEW E3 UBIQUITIN LIGASE LIGAND, PROTEIN DEGRADATION AGENT AND USE THEREOF” (priority 2023, dated 2024)
